Patent publication US20240252488A1 (KOREA RESEARCH INSTITUTE OF CHEMICAL TECHNOLOGY, priority 2020, published 2024)

Legend:
FADD−/− Jurkat cells = assay: Necroptosis inhibition assay, TNF-α-induced necroptosis (CellTiter-Glo 2.0); assay type: cell-based, human; conditions: TNF-α 15 ng/mL, FADD−/− Jurkat cells; for Necroptosis inhibition assay (Rescue %) 1 μM: compound 1 μM; for Necroptosis inhibition assay (Rescue %) 10 μM: compound 10 μM
Outline: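 Tested at three fixed concentrations (0.1, 1, 10 μM final) with a 30-minute room-temperature preincubation ahead of 15 ng/mL TNF-α challenge lasting 20 to 24 hours. Inhibition rate and cytotoxicity derive from ATP luminescence.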

MLKL [1] = target: T1, MLKL (Homo sapiens, UniProt Q8NB16); assay: Measurement of binding affinity with MLKL receptor (competitive binding assay, Kd); parameters: made in house; host or cells: HEK 293 cell line (T7 phage in E. coli BL21-derived host is also described)
T1 sequence (Q8NB16 1-471): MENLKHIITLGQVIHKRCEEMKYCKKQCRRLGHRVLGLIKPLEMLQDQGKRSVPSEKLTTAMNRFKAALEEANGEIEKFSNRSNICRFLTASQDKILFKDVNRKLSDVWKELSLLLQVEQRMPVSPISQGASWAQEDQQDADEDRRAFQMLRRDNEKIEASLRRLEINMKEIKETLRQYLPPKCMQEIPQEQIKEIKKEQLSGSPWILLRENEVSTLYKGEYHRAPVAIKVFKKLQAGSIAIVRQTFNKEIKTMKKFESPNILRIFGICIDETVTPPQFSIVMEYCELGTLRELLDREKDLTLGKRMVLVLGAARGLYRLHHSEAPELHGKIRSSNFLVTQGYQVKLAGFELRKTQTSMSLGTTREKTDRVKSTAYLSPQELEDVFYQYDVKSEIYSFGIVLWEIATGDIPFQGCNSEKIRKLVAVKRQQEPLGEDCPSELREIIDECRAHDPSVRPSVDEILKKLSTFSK
Outline: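 Kd from an immobilized-ligand competition format: the DNA-tagged kinase from HEK 293 expression is eluted and quantified by qPCR. Compounds added from 111× DMSO stocks, final DMSO 0.9%.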

MLKL [2] = target: T1, MLKL; assay: MLKL degradation assay in HepG2 cell line (western blot); assay type: cell-based; parameters: endogenous in cells; host or cells: HepG2 or HaCaT; conditions: cell line not given; for Degradation assay (Degradation %) 1 μM: compound 1 μM; for Degradation assay (Degradation %) 10 μM: compound 10 μM
Outline: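 Degradation is judged from MLKL band intensity on immunoblots of HepG2 lysates taken after 20-24 hours of compound at final 1 or 10 μM.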

Row | Structure (SMILES) | Kd (MLKL [1]) [pM] | Degradation assay (Degradation %) 1 μM (MLKL [2]) [%] | Degradation assay (Degradation %) 10 μM (MLKL [2]) [%] | Necroptosis inhibition assay (Rescue %) 1 μM (FADD−/− Jurkat cells) [%] | Necroptosis inhibition assay (Rescue %) 10 μM (FADD−/− Jurkat cells) [%]
1 | Nc1ncc(-c2cnn(C3CCN(CCCN4CCN(C(=O)Cc5cccc(NC6=CC(=O)N(C7CCC(=O)NC7=O)C6=O)c5)CC4)CC3)c2)nc1C(=O)O[C@@H](C(=O)Nc1ccc(F)cc1)c1ccccc1 (stereo partly drawn) [TDH-495, (R)-2-((4-fluorophenyl)amino)-2-oxo-1-phenylethyl 3-amino-6-(1-(1-(3-(4-(2-(3-((1-(2,6-dioxopiperidin-3-yl)-2,5-dioxo-2,5-dihydro-1H-pyrrol-3-yl)amino)phenyl)acetyl)piperazin-1-yl)propyl)piperidin-4-yl)-1H-pyrazol-4-yl)pyrazine-2-carboxylate] | 1300 | 81.34 | 85.73 | 42.19 | 17.62
2 | Nc1ncc(-c2cnn(C3CCN(CCOC4CCN(C(=O)Cc5cccc(NC6=CC(=O)N(C7CCC(=O)NC7=O)C6=O)c5)CC4)CC3)c2)nc1C(=O)O[C@@H](C(=O)Nc1ccc(F)cc1)c1ccccc1 (stereo partly drawn) [TDH-496, (R)-2-((4-fluorophenyl)amino)-2-oxo-1-phenylethyl 3-amino-6-(1-(1-(2-((1-(2-(3-((1-(2,6-dioxopiperidin-3-yl)-2,5-dioxo-2,5-dihydro-1H-pyrrol-3-yl)amino)phenyl)acetyl)piperidin-4-yl)oxy)ethyl)piperidin-4-yl)-1H-pyrazol-4-yl)pyrazine-2-carboxylate] | 2200 | 87.42 | 81.07 | 27.23 | 7.85
3 | COc1ccc(C(=O)NCC2CCC(CN3CCC(n4cc(-c5cnc(N)c(C(=O)O[C@@H](C(=O)Nc6ccc(F)cc6)c6ccccc6)n5)cn4)CC3)CC2)cc1N1CCC(=O)NC1=O (stereo partly drawn) [TDH-497, (R)-2-((4-fluorophenyl)amino)-2-oxo-1-phenylethyl 3-amino-6-(1-(1-(((1r,4r)-4-((3-(2,4-dioxotetrahydropyrimidin-1(2H)-yl)-4-methoxybenzamido)methyl)cyclohexyl)methyl)piperidin-4-yl)-1H-pyrazol-4-yl)pyrazine-2-carboxylate] | 610 | 73.89 | 57.10 | 13.48 | −1.14
4 | Nc1ncc(-c2cnn(C3CCN(C[C@H]4CC[C@H](CNC(=O)Cc5cccc(NC6=CC(=O)N(C7CCC(=O)NC7=O)C6=O)c5)CC4)CC3)c2)nc1C(=O)O[C@@H](C(=O)Nc1ccc(F)cc1)c1ccccc1 (stereo partly drawn) [TDH-498, (R)-2-((4-fluorophenyl)amino)-2-oxo-1-phenylethyl 3-amino-6-(1-(1-(((1r,4r)-4-((2-(3-((1-(2,6-dioxopiperidin-3-yl)-2,5-dioxo-2,5-dihydro-1H-pyrrol-3-yl)amino)phenyl)acetamido)methyl)cyclohexyl)methyl)piperidin-4-yl)-1H-pyrazol-4-yl)pyrazine-2-carboxylate] | 3700 | 86.68 | 89.27 | 23.9 | 16.6
5 | Nc1ncc(-c2cnn(C3CCN(C4CC5(CCN(CC6CCN(C(=O)Cc7cccc(NC8=CC(=O)N(C9CCC(=O)NC9=O)C8=O)c7)CC6)CC5)C4)CC3)c2)nc1C(=O)O[C@@H](C(=O)Nc1ccc(F)cc1)c1ccccc1 (stereo partly drawn) [TDH-500, (R)-2-((4-fluorophenyl)amino)-2-oxo-1-phenylethyl 3-amino-6-(1-(1-(7-((1-(2-(3-((1-(2,6-dioxopiperidin-3-yl)-2,5-dioxo-2,5-dihydro-1H-pyrrol-3-yl)amino)phenyl)acetyl)piperidin-4-yl)methyl)-7-azaspiro[3.5]nonan-2-yl)piperidin-4-yl)-1H-pyrazol-4-yl)pyrazine-2-carboxylate] | 640 | 80.41 | 83.21 | 25.16 | 0.16
6 | COc1ccc(C(=O)N2CCC(CCN3CCC(CN4CCC(n5cc(-c6cnc(N)c(C(=O)O[C@@H](C(=O)Nc7ccc(F)cc7)c7ccccc7)n6)cn5)CC4)CC3)CC2)cc1N1CCC(=O)NC1=O [TDH-501, (R)-2-((4-fluorophenyl)amino)-2-oxo-1-phenylethyl 3-amino-6-(1-(1-((1-(2-(1-(3-(2,4-dioxotetrahydropyrimidin-1(2H)-yl)-4-methoxybenzoyl)piperidin-4-yl)ethyl)piperidin-4-yl)methyl)piperidin-4-yl)-1H-pyrazol-4-yl)pyrazine-2-carboxylate] | 950 | 93.47 | 96.40 | 92.23 | 71.17

Stronger by Kd (MLKL [1]), values ahead:

Row | Kd (MLKL [1]) [pM] | Degradation assay (Degradation %) 1 μM (MLKL [2]) [%] | Degradation assay (Degradation %) 10 μM (MLKL [2]) [%] | Structure (SMILES) | Necroptosis inhibition assay (Rescue %) 1 μM (FADD−/− Jurkat cells) [%] | Necroptosis inhibition assay (Rescue %) 10 μM (FADD−/− Jurkat cells) [%]
7 | 440 | 93.09 |  | COc1ccc(C(=O)N2CCC3(CC2)CC(N2CCC(CN4CCC(n5cc(-c6cnc(N)c(C(=O)O[C@@H](C(=O)Nc7ccc(F)cc7)c7ccccc7)n6)cn5)CC4)CC2)C3)cc1N1CCC(=O)NC1=O [TDH-503, (R)-2-((4-fluorophenyl)amino)-2-oxo-1-phenylethyl 3-amino-6-(1-(1-((1-(7-(3-(2,4-dioxotetrahydropyrimidin-1(2H)-yl)-4-methoxybenzoyl)-7-azaspiro[3.5]nonan-2-yl)piperidin-4-yl)methyl)piperidin-4-yl)-1H-pyrazol-4-yl)pyrazine-2-carboxylate] | 94.80 | 14.61
8 | 420 | 85.39 | 91.54 | COc1ccc(C(=O)N2CCC(C(=O)N3CCC(CCN4CCC(CN5CCC(n6cc(-c7cnc(N)c(C(=O)O[C@@H](C(=O)Nc8ccc(F)cc8)c8ccccc8)n7)cn6)CC5)CC4)CC3)CC2)cc1N1CCC(=O)NC1=O [TDH-502, (R)-2-((4-fluorophenyl)amino)-2-oxo-1-phenylethyl 3-amino-6-(1-(1-((1-(2-(1-(1-(3-(2,4-dioxotetrahydropyrimidin-1(2H)-yl)-4-methoxybenzoyl)piperidine-4-carbonyl)piperidin-4-yl)ethyl)piperidin-4-yl)methyl)piperidin-4-yl)-1H-pyrazol-4-yl)pyrazine-2-carboxylate] | 54.75 | 66.18
9 | 410 | 90.60 | 91.41 | COc1ccc(C(=O)N2CCC(CN3CCC4(CC3)CC(N3CCC(n5cc(-c6cnc(N)c(C(=O)O[C@@H](C(=O)Nc7ccc(F)cc7)c7ccccc7)n6)cn5)CC3)C4)CC2)cc1N1CCC(=O)NC1=O [TDH-499, (R)-2-((4-fluorophenyl)amino)-2-oxo-1-phenylethyl 3-amino-6-(1-(1-(7-((1-(3-(2,4-dioxotetrahydropyrimidin-1(2H)-yl)-4-methoxybenzoyl)piperidin-4-yl)methyl)-7-azaspiro[3.5]nonan-2-yl)piperidin-4-yl)-1H-pyrazol-4-yl)pyrazine-2-carboxylate] | 45.83 | 11.8
10 | 230 | 93.87 | 94.41 | COc1ccc(C(=O)N2CCC3(CC2)CC(N2CCC(CCN4CCC(n5cc(-c6cnc(N)c(C(=O)O[C@@H](C(=O)Nc7ccc(F)cc7)c7ccccc7)n6)cn5)CC4)CC2)C3)cc1N1CCC(=O)NC1=O [TDH-504, (R)-2-((4-fluorophenyl)amino)-2-oxo-1-phenylethyl 3-amino-6-(1-(1-(2-(1-(7-(3-(2,4-dioxotetrahydropyrimidin-1(2H)-yl)-4-methoxybenzoyl)-7-azaspiro[3.5]nonan-2-yl)piperidin-4-yl)ethyl)piperidin-4-yl)-1H-pyrazol-4-yl)pyrazine-2-carboxylate] | 94.61 | 33.71
